System: A2 molecules
Type: binding, human

Q: With “M L L A V L Y C L (SEQ ID NO: 5) [tyrosinase 1-9]” as the substance, how does the “binding affinity for A2 molecules” value read?
A: significantly lower affinity
